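Values below derive from 48-hour exposures of cells grown in 96-well plates, with endpoints linearly interpolated between the two concentrations bracketing the appropriate inhibition level. GI50 is the concentration that inhibits growth by half. The concentration for full growth arrest is given as TGI.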
What was measured:
Test in all cases: NCI anticancer screen, dose series, 48 h
[1] = system: SR leukemia
[2] = system: NCI-H460 lung
[3] = system: SF-295 CNS
[4] = system: SK-MEL-5 melanoma
[5] = system: 786-0 renal
[6] = system: SK-OV-3 ovarian
[7] = system: OVCAR-5 ovarian
[8] = system: K-562 leukemia
[9] = system: HT29 colon
[10] = system: HCC-2998 colon
[11] = system: MALME-3M melanoma
[12] = system: HS 578T breast
[13] = system: SK-MEL-28 melanoma
[14] = system: MOLT-4 leukemia
[15] = system: ACHN renal
[16] = system: NCI/ADR-RES ovarian
[17] = system: T-47D breast
[18] = system: OVCAR-8 ovarian
[19] = system: NCI-H23 lung
[20] = system: HOP-62 NSCLC
[21] = system: SNB-75 CNS
[22] = system: A549 NSCLC
[23] = system: RPMI-8226 leukemia
[24] = system: SF-539 CNS
[25] = system: EKVX NSCLC
[26] = system: HOP-92 NSCLC
[27] = system: SNB-19 CNS
[28] = system: UO-31 renal
[29] = system: DU-145 prostate
[30] = system: NCI-H226 lung
[31] = system: TK-10 renal
[32] = system: MCF7 breast
[33] = system: COLO 205 colon
[34] = system: CAKI-1 renal
[35] = system: HCT-116 colon
[36] = system: OVCAR-4 ovarian
[37] = system: UACC-257 melanoma
[38] = system: SW-620 colon
[39] = system: IGROV1 ovarian
[40] = system: RXF 393 renal
[41] = system: U251 CNS
[42] = system: LOX IMVI melanoma
[43] = system: CCRF-CEM leukemia
[44] = system: HL-60(TB) leukemia
[45] = system: HCT-15 colon
[46] = system: MDA-MB-435
[47] = system: KM12 colon
[48] = system: UACC-62 melanoma
[49] = system: SK-MEL-2 melanoma
[50] = system: SN12C renal
[51] = system: PC-3 prostate
[52] = system: SF-268 CNS
[53] = system: M14 melanoma
[54] = system: NCI-H522 lung
[55] = system: MDA-MB-231 breast
[56] = system: BT-549 breast

Compound: C=C(C=O)[C@@H]1CC[C@]2(C)[C@H](CC=C3[C@H]4[C@@H](C)[C@H](C)CC[C@]4(C(=O)OC)CC[C@]32C)[C@@]1(C)CCC#N
- GI50 [1]: 1860 nM
- TGI [1]: > 100000 nM
- GI50 [2]: 1880 nM
- TGI [2]: 3540 nM
- GI50 [3]: 1340 nM
- TGI [3]: 2670 nM
- GI50 [4]: 1740 nM
- TGI [4]: 3140 nM
- GI50 [5]: 1730 nM
- TGI [5]: 3290 nM
- GI50 [6]: 2390 nM
- TGI [6]: 5260 nM
- GI50 [7]: 2160 nM
- TGI [7]: 4890 nM
- GI50 [8]: 2830 nM
- TGI [8]: > 100000 nM
- GI50 [9]: 1590 nM
- TGI [9]: 3470 nM
- GI50 [10]: 1630 nM
- TGI [10]: 3110 nM
- GI50 [11]: 1960 nM
- TGI [11]: 3690 nM
- GI50 [12]: 2530 nM
- TGI [12]: 5980 nM
- GI50 [13]: 1810 nM
- TGI [13]: 3330 nM
- GI50 [14]: 2660 nM
- TGI [14]: 12600 nM
- GI50 [15]: 1640 nM
- TGI [15]: 3020 nM
- GI50 [16]: 1950 nM
- TGI [16]: 4580 nM
- GI50 [17]: 1340 nM
- TGI [17]: 5540 nM
- GI50 [18]: 1900 nM
- TGI [18]: 3890 nM
- GI50 [19]: 1810 nM
- TGI [19]: 3590 nM
- GI50 [20]: 1960 nM
- TGI [20]: 3900 nM
- GI50 [21]: 1550 nM
- TGI [21]: 3010 nM
- GI50 [22]: 3490 nM
- TGI [22]: 14800 nM
- GI50 [23]: 1610 nM
- TGI [23]: 5710 nM
- GI50 [24]: 1930 nM
- TGI [24]: 3490 nM
- GI50 [25]: 1890 nM
- TGI [25]: 3710 nM
- GI50 [26]: 1300 nM
- TGI [26]: 2640 nM
- GI50 [27]: 1940 nM
- TGI [27]: 4160 nM
- GI50 [28]: 1480 nM
- TGI [28]: 2810 nM
- GI50 [29]: 1940 nM
- TGI [29]: 3750 nM
- GI50 [30]: 1810 nM
- TGI [30]: 3940 nM
- GI50 [31]: 1610 nM
- TGI [31]: 3320 nM
- GI50 [32]: 1610 nM
- TGI [32]: 4090 nM
- GI50 [33]: 1800 nM
- TGI [33]: 3550 nM
- GI50 [34]: 1560 nM
- TGI [34]: 3160 nM
- GI50 [35]: 1490 nM
- TGI [35]: 3050 nM
- GI50 [36]: 3070 nM
- TGI [36]: 10700 nM
- GI50 [37]: 1820 nM
- TGI [37]: 3530 nM
- GI50 [38]: 1760 nM
- TGI [38]: 3360 nM
- GI50 [39]: 1820 nM
- TGI [39]: 3750 nM
- GI50 [40]: 1990 nM
- TGI [40]: 3550 nM
- GI50 [41]: 1680 nM
- TGI [41]: 3120 nM
- GI50 [42]: 1610 nM
- TGI [42]: 3080 nM
- GI50 [43]: 1420 nM
- TGI [43]: 9470 nM
- GI50 [44]: 2260 nM
- TGI [44]: 5950 nM
- GI50 [45]: 1470 nM
- TGI [45]: 3070 nM
- GI50 [46]: 1810 nM
- TGI [46]: 3530 nM
- GI50 [47]: 1600 nM
- TGI [47]: 3060 nM
- GI50 [48]: 1590 nM
- TGI [48]: 3590 nM
- GI50 [49]: 1710 nM
- TGI [49]: 3210 nM
- GI50 [50]: 1820 nM
- TGI [50]: 3830 nM
- GI50 [51]: 1200 nM
- TGI [51]: 3100 nM
- GI50 [52]: 1990 nM
- TGI [52]: 3570 nM
- GI50 [53]: 1790 nM
- TGI [53]: 3840 nM
- GI50 [54]: 1760 nM
- TGI [54]: 3310 nM
- GI50 [55]: 1790 nM
- TGI [55]: 3760 nM
- GI50 [56]: 1620 nM
- TGI [56]: 3240 nM

— PubChem BioAssay (NCI)
